Experimental data from patent US12472259B2, “PKC inhibitors for the treatment of septic cholestasis with polymethine dye targeting” (SMARTDYELIVERY GMBH, priority 2018, dated 2025).

Key:
[1] = system: male C57/BL6 mice, PCI model; test: Survival rate in cholestasis model under septic conditions, peritoneal contamination and infection (PCI); type: in vivo; conditions: 4 mg/kg body weight
Method: In order to mimic the septic cholestasis, a systemic inflammation was induced using the well-established peritoneal contamination and infection (PCI) model. In this model, a human faeces suspension is applied intraperitoneally (i.p.) and rapidly triggers sepsis with liver dysfunction.
For each batch of human stool, the dose is titrated carefully for a survival between 0% and 20% within two weeks.
To find the adequate dose of stool, different doses were tested. 6 h after i.p. application of the stool, 8-12 weeks old C57/BL6 mice or FVB/N mice were treated with the nanoparticles or the free drug respectively.
A systemic infection/sepsis with organ failure was induced in male C57/BL6 mice by using the PCI model. For this purpose, a human fecal suspension (2.5 μl/g BW for stool batch1 and 6 μl/g for stool batch 2, respectively) was injected intraperitoneally (without anesthesia) with weight adaptation, thus triggering peritonitis with subsequent systemic infection. […] The animals were closely monitored and scored every 6 hours for signs of infection in order to timely. […] With the evaluated dose of 6 μl/g BW stool and additional antibiotic therapy, all mice died within three days, as shown in the Kaplan-Meier-Schatzer diagram (FIG. 11, right panel). […]

[2] = during idelalisib; cited from earlier work
[3] = cited from earlier work

For `O=C1NC(=O)/C(=C\c2ccc3nccnc3c2)S1` [AS605240], the “activity of the free drug alone (dose evaluation, survival)” value [1] was “active”.
For `CN(C)CCCn1cc(C2=C(c3c[nH]c4ccccc34)C(=O)NC2=O)c2ccccc21` [BIM-1], the “activity of the free drug alone (dose evaluation, survival)” value [1] was “active”.
For `CC[C@H](Nc1ncnc2[nH]cnc12)c1nc2cccc(F)c2c(=O)n1-c1ccccc1` [idelalisib], the “risk of developing sepsis as adverse effect compared to placebo” value [2] is given as “five-fold higher risk”.
For `CO[C@@H]1[C@H](N(C)C(=O)c2ccccc2)C[C@H]2O[C@]1(C)n1c3ccccc3c3c4c(c5c6ccccc6n2c5c31)C(=O)NC4` [midostaurin], the “On-treatment death unrelated to the underlying malignancy” value ([3]; 16 patients, most commonly from infection (sepsis or pneumonia)) is listed as 11%, the “Grade≥3 adverse reactions (fatigue, sepsis, gastrointestinal hemorrhage, pneumonia, diarrhea, febrile neutropenia) reported in” value ([3]; patients on midostaurin) is listed as no less than 5% and the “Serious adverse reactions most commonly due to infections and gastrointestinal disorders” value ([3]; patients on midostaurin) is listed as 20%. For the same compound, the “Serious adverse reactions reported” value ([3]; patients on midostaurin) was 68 % of patients and the “Treatment discontinuation due to adverse reaction” value ([3]; patients on midostaurin) was 21 % of patients.
